“And” between values parts separate entries of the source, which are not always exact repeats. Equal values may be shown once.
What was measured:
[1] = test system: hPD1 gene in human T cells; assay: hPD1 gene editing in primary human T cells (T7E1 assay); type: cell-based
Method: T cells were isolated from PBMCs (2 different donors) using anti-CD3/anti-CD28 antibodies bound to paramagnetic beads (Dynabeads ClinExVivo CD3/CD28, Invitrogen) at a ratio of 3:1 (beads:cells). The cells and beads were co-incubated for 2 hours at room temperature and CD3′ cell enrichment was performed using Dynal ClinExVIVO MPC magnet (Thermo Fisher). The anti-CD3/anti-CD28 paramagnetic beads were removed, washed and concentrated. Cells in the CD3′ fraction were resuspended in activation media at a concentration of 1×10^6 cells/ml with AIM-V medium (Thermo Fishers) supplemented with 10% fetal calf serum, 300 IU/ml IL2 and 50 ng/ml OKT3 (MuromonAB-CD3) for two days.
Cells were transfected by electroporation with CD-19 plasmid or gRNA/CAS9 (5 μg/10 μg) using a Nucleofector 2b (Lonza, Germany) with the Amaxa Human T cells Nucleofector Kit, VPA-1002 (Lonza, Germany). 5×10^6 cells were washed twice with DPBS by centrifuging at 800 rpm for 5 minutes and resuspended in 100 ^l transfection buffer, and then transferred into the electroporation cuvette. An optimized program selected for both high transfection and high efficiency on T cells was used. After electroporation, cells were resuspended in 500 ^l pre-warmed AIM-V medium containing 10% FBS and incubated at 37° C. in 5% CO2. The transfection efficiency was evaluated after 48 hr by flow cytometry or T7E1 assay.
As control, CAS9 loaded with gRNA targeting GFP was used.
Cells were returned to the incubator for 72 hours. CAS9-induced double-strand break followed by repair through non-homologous end joining (NHEJ) was analyzed by either the T7E1 assay or using the Genome Cleavage Detection kit (GCD Thermo Fisher) and quantified using Fragment Analyzer System. The indel frequency in the target gene was quantified using the T7E1 assay. The cultures were expanded and analyzed for viability and PD1 levels every 10 days. T cell expansion medium contained AIM V medium, supplemented with 5% heat-inactivated human AB Serum, 1% Gluta-Max, and 300 IU/mL IL-2.

[2] = test system: endogenous EMX1 gene in primary human T cells; assay: EMX1 editing in primary human T cells with CAS9 mRNA, protein or plasmid plus gRNA (T7E1); type: cell-based; conditions: CAS9-expressing plasmid and gRNA; day 3
Method: CPP/CAS9 mRNA/gRNA complexes were formed by mixing the CAS9 mRNA (0.5 μg) and gRNA (5 μg) with CPP at a 20:1 molar ratio of CPP to nucleic acid (mRNA+gRNA) and incubating for 30 min at 37° C. prior to cell transfection. CPP/plasmid/gRNA complexes were formed by mixing CAS9 expressing plasmid (Addgene MLM3639-Plasmid #42252) (0.5 μg) and gRNA (5 μg) with CPP at a 20:1 molar ratio of CPP to nucleic acid (plasmid+gRNA) and incubating for 30 min at 37° C. prior to cell transfection. CPP/CAS9/gRNA complexes were formed by mixing preloaded CAS9/gRNA complexes (2.5 μg/5 μg CAS9/gRNA) with CPP at a 20:1 molar ratio of CPP to complex and incubating for 30 min at 37° C. prior to cell transfection.
T cells were transfected according to the protocol for suspension cells described in Example 13a. Lipofectamine 2000- and RNAiMAX-mediated delivery methods (Invitrogen Thermo Fisher France) were included as controls. EMX1 gene editing was analyzed at day 3, day 6, and day 10 by T7E1 assay and quantified using a Fragment Analyzer System.

[3] = CPP/CAS9 and CPP/CAS9:gRNA particle size, polydispersity, zeta potential (Zetasizer 4); type: physicochemical
Method: The CPP/CAS9 and CPP/CAS9/sgRNA particles were further characterized; the mean size, polydispersity and zeta potential were measured with Zetasizer 4 apparatus (Malvern Ltd). […] The mean size and the polydispersity of the CCP/CAS9 and CCP/CAS9:gRNA complexes were determined at 25° C. for 3 min per measurement and zeta potential was measured with Zetasizer 4 apparatus (Malvern Ltd).

[4] = Particle size, polydispersity and zeta potential with different cargoes (Zetasizer NANO ZS P); type: physicochemical; conditions: 20:1
Method: The CPP/CAS9-protein, CPP/CAS9-protein/sgRNA, CPP/CAS9-mRNA, CPP/CAS-mRNA/sgRNA particles were characterized; the mean size, polydispersity, and zeta potential were measured with a Zetasizer NANO ZS P apparatus (Malvern Ltd).
The mean size and the polydispersity of the CCP/cargo complexes were determined at 25° C. for 5 min per measurement and zeta potential was measured with a Zetasizer NANO ZS P apparatus (Malvern Ltd).

[5] = test system: PCSK9; assay: In vivo CAS9 mRNA/gRNA targeting PCSK9: serum PCSK9 (ELISA); parameters: species or system mouse
Method: Polyadenylated and capped CAS9 mRNA was obtained from ThermoFisher, and gRNA (5 μg) targeting PCSK9 Exon 1 was obtained from Eurogentec. […] Free CAS9 mRNA/gRNA was injected as a control.
Blood samples were collected by saphenous vein bleeds at multiple time points (day 3, 6, 10, and 21), collecting no more than 100 μl or 10% of total blood volume per week. Serum levels of PCSK9 were determined by ELISA using the Mouse Proprotein Convertase 9/PCSK9 Quantikine ELISA Kit (MPC-900, R&DSystems).

[6] = test system: endogenous EMX1 gene in U2OS, HEPG2, K562 cells and primary human fibroblasts; assay: EMX1 editing from CPP delivery of CAS9 protein/gRNA (T7E1); type: cell-based; conditions: each of the cell types tested; 2.5 μg/5 μg CAS9/gRNA
Method: CPP/CAS9/gRNA complexes were prepared by mixing preloaded CAS9/gRNA complexes (2.5 μg/5 μg CAS9/gRNA) with CPP peptides at a 20:1 molar ratio of CPP to cargo and incubating for 30 min at 37° C. prior to cell transfection. Cells were transfected according to the protocols described in Example 13a, and RNAiMAX-mediated delivery (Invitrogen Thermo Fisher France) was used as a control. EMX1 gene editing was analyzed at day 3 and day 6 by T7E1 assay and quantified using a Fragment Analyzer System.

[7] = test system: endogenous hPD1 gene in JURKAT and K562 cells; assay: hPD1 gene editing in T cell lines (T7E1 assay); type: cell-based, human
Method: CAS9 protein was preloaded with purified sgRNA at a molar ratio of 1:1 and incubated for 10 min prior to forming complexes with peptides.
5×10^6 cells were washed twice with DPBS by centrifuging at 800 rpm for 5 minutes and resuspended in 100 ^l transfection buffer, and then transferred into the electroporation cuvette. An optimized program selected for both high transfection and high efficiency on T cells was used. After electroporation, cells were resuspended in 500 ^l pre-warmed AIM-V medium containing 10% FBS and incubated at 37° C. in 5% CO2. The transfection efficiency was evaluated after 48 hr by flow cytometry or T7E1 assay.
RNAiMAX delivery method was used as positive control. Cells were either resuspended in or overlaid with 100 μl of preformed complexes, incubated for 3-5 min, and then 300 μl of DMEM was added. […] The indel frequency in the hPD1 gene was quantified using the T7E1 assay.

[8] = test system: endogenous EMX1 and HPRT genes in primary human cardiac fibroblasts and primary human hepatocytes; assay: EMX1 and HPRT editing in primary human cells (T7E1 assay); type: cell-based; conditions: for mean indel frequencies: both genes
Method: ADGN-100 peptides were also evaluated for cellular delivery of multiple RGEN:gRNA complexes targeting endogenous EMX1 and HPRT genes in primary human cardiac fibroblasts and primary human hepatocytes. The CAS9/gRNA complexes contained either CAS9 protein or mRNA encoding the CAS9 protein and a gRNA targeting either EMX1 or HPRT. Human primary cardiac fibroblasts and human primary hepatocytes were freshly obtained and grown in flasks pre-coated with a gelatin-based coating solution and incubated in Culture Complete Growth Medium for 3 days before expansion and treatment. […] Non-Homologous End Joining (NHEJ) was analyzed 72 hours after transfection by the T7E1 assay and compared to delivery using RNAiMAX lipid methods. The toxicity was analyzed for all conditions using the MTT assay.
CAS9 protein was preloaded with purified gRNA-GFP at a molar ratio of 1:1 and incubated for 10 min prior to forming complexes with ADGN peptides.
The following protocol was used for both cell types. Cells were cultured to about 70% confluence at the time of transfection. Cells were maintained in high glucose DMEM media with 10% serum. Before transfection, cells were washed with DMEM twice and resuspended in 0.2 ml of complex solution (16 μl complex+184 μl OPTiMEM) mixed gently and incubated for 10 min at 37° C. 0.8 mL of fresh OPTiMEM (high glucose) was added and cells were incubated for 20 min at 37° C. […] Cells were returned to the incubator at 37° C. and assayed at 72 hours post transfection.
As a positive control, complexes were delivered using RNAiMAX (Invitrogen Thermo Fisher). CAS9-induced double-strand break formation followed by repair throughout the non-homologous end joining (NHEJ) system was analyzed at 72 hours by the T7E1 assay and quantified using a Fragment Analyzer System. The indel frequencies reported for the EMX1 and HPRT genes are an average of 3 separate experiments. Cytotoxicity was analyzed using the MTT assay.

[9] = test system: EGFP-U2OS, EGFP-HEK, EGFP-JURKAT cells; assay: Toxicity of CPP/CAS9/gRNA complexes (MTT assay); type: cell-based; conditions: three cell lines; concentrations up to 100 nM; 24 h
Method: The robust EGFP disruption observed in the three cell lines was found not to be the result of cellular toxicity. […] A total of 30,000 cells seeded in 24-well plates the day prior to transfection were incubated with increasing concentrations of CPP/CAS9/gRNA (complexed at a 10:1 or 20:1 molar ratio of CPP to preloaded CAS9/gRNA complex) ranging from 1 to 200 nM for 30 min prior to addition of medium to reach a final 10% concentration of FCS. Cytotoxic response was measured 24 hours later by colorimetric MTT assay (Sigma, Germany). For MTT assay, cell culture medium was removed and replaced with PBS containing 2.5 mg/ml MTT for 4 hours. Results correspond to the average of 3 separate experiments. […] Viability was reduced by less than 10% at 200 nM. In contrast, at […] for Lipofectamine 2000 or RNAiMAX, between 60-70% and 20-25% cell death was observed, depending on cell line. Moreover, both lipid methods appeared to be highly toxic on JURKAT cells, inducing 75% (lipofectamine 2000) or 45% (RNAiMAX) cell death.

SMILES: CC(C)C[C@H](NC(=O)[C@H](CCCNC(=N)N)NC(=O)[C@H](Cc1c[nH]c2ccccc12)NC(=O)[C@H](CCCNC(=N)N)NC(=O)[C@H](Cc1c[nH]c2ccccc12)NC(=O)CNC(=O)[C@H](C)NC(=O)[C@H](CO)NC(=O)[C@H](CCCNC(=N)N)NC(=O)[C@H](Cc1c[nH]c2ccccc12)NC(=O)[C@H](CCCCN)NC(=O)CCN)C(=O)N[C@@H](Cc1c[nH]c2ccccc12)C(=O)N[C@@H](CCCNC(=N)N)C(=O)N[C@H](C(=O)N[C@@H](CCCNC(=N)N)C(=O)N[C@@H](CO)C(=O)N[C@@H](Cc1c[nH]c2ccccc12)C(=O)N[C@@H](CO)C(=O)N[C@@H](CCCNC(=N)N)C(=O)O)C(C)C [ADGN-100a]
- Mean indel Frequency ± s.e.m ([1]; Donor 1, CAS9/sgRNA 2.5 μg/5 μg): 48 ± 6%
- Mean indel Frequency ± s.e.m ([1]; Donor 1, CAS9/sgRNA 5 μg/10 μg): 56 ± 4%
- Mean indel Frequency ± s.e.m ([1]; Donor 2, CAS9/sgRNA 2.5 μg/5 μg): 52 ± 5%
- Mean indel Frequency ± s.e.m ([1]; Donor 2, CAS9/sgRNA 5 μg/10 μg): 61 ± 8%
- mean indel frequency of hPD1 gene ([1]; T cells from the two donors, 5 μg/10 μg CAS9/gRNA): 58%
- mean indel frequencies [2]: about 30%
- PI ([3]; Cas9:gRNA, molar ratio 10/1): 0.27 ± 0.1
- Size ([3]; Cas9:gRNA, molar ratio 10/1): 91 ± 5 nm
- zeta ([3]; Cas9:gRNA, molar ratio 10/1): 5.3±1.0 MV and 5.3 ± 0.7 MV
- PI ([3]; Cas9:gRNA, molar ratio 20/1): 0.28 ± 0.1
- Size ([3]; Cas9:gRNA, molar ratio 20/1): 87 ± 6 nm
- zeta ([3]; Cas9:gRNA, molar ratio 20/1): 4.8±0.3 MV
- Pt ([3]; Cas9, molar ratio 10/1): 0.25 ± 0.1
- zeta ([3]; Cas9, molar ratio 10/1): 6.0±0.8 mV
- Size ([3]; Cas9, molar ratio 10/1, 0.9% NaCl): 82 ± 5 nm
- Pt ([3]; Cas9, molar ratio 20/1): 0.21 ± 0.1
- Size ([3]; Cas9, molar ratio 20/1): 78 ± 7 nm
- zeta ([3]; Cas9, molar ratio 20/1): 7.2±1 mV
- formation of stable nanoparticles ([3]; with CAS9 and CAS9:gRNA complex, molar ratio 10:1 or 20:1): able to form stable nanoparticles
- Mean diameter ([3]; with CAS9 and CAS9:gRNA, molar ratio 10:1 or 20:1): ~80 nm
- formation of stable nanoparticles ([4]; with CAS9-mRNA and CAS9-mRNA/gRNA complex): able to form stable nanoparticles
- Mean diameter ([4]; with CAS9-mRNA and CAS9-mRNA/gRNA): about 75 nm
- formation of stable nanoparticles ([4]; with CAS9-protein and CAS9-protein/gRNA complex): able to form stable nanoparticles
- Mean diameter ([4]; with CAS9-protein and CAS9-protein/gRNA): about 100 nm
- decrease of serum levels of PSCK9 ([5]; day 1, CAS9 mRNA 5 μg/gRNA 5 μg single i.v.): 51%
- decrease of serum levels of PSCK9 ([5]; day 3): 62%
- decrease of serum levels of PSCK9 ([5]; day 6): 69%
- decrease of serum levels of PSCK9 ([5]; day 10): 65%
- decrease of serum levels of PSCK9 ([5]; day 14): 65%
- decrease of serum levels of PSCK9 ([5]; day 20): 60%
- mean indel frequencies [6]: 60-65%
- Mean indel Frequency ± s.e.m ([7]; JURKAT, CAS9/sgRNA 2.5 μg/5 μg): 70 ± 5%
- Mean indel Frequency ± s.e.m ([7]; JURKAT, CAS9/sgRNA 5 μg/10 μg): 72%
- Mean indel Frequency ± s.e.m ([7]; JURKAT, CAS9/sgRNA 5 μg/10 μg, listed as ADGN400a): 72 ± 2%
- Mean indel Frequency ± s.e.m ([7]; K562, CAS9/sgRNA 2.5 μg/5 μg): 68 ± 2%
- Mean indel Frequency ± s.e.m ([7]; K562, CAS9/sgRNA 5 μg/10 μg): 71%
- Mean indel Frequency ± s.e.m ([7]; K562, CAS9/sgRNA 5 μg/10 μg, listed as ADGN400a): 71 ± 5%
- more potent than RNAiMAX [8]: 3-4 folds
- Mean indel Frequency ± S.E.M ([8]; EMX1, Fibroblasts, 20 nM): 65 ± 4%
- Mean indel Frequency ± S.E.M ([8]; EMX1, Fibroblasts, 50 nM): 67 ± 5%
- Mean indel Frequency ± S.E.M ([8]; EMX1, Fibroblasts, CAS9/sgRNA 10 nM): 61 ± 5%
- Mean indel Frequency ± S.E.M ([8]; EMX1, Hepatocytes, 10 nM): 55 ± 6%
- Mean indel Frequency ± S.E.M ([8]; EMX1, Hepatocytes, 20 nM): 58 ± 5%
- Mean indel Frequency ± S.E.M ([8]; EMX1, Hepatocytes, 50 nM): 61 ± 5%
- Mean indel Frequency ± S.E.M ([8]; HPRT (printed HPR/HPRI), Fibroblasts, 10 nM): 62 ± 5%
- Mean indel Frequency ± S.E.M ([8]; HPRT, Fibroblasts, 20 nM): 68 ± 4%
- Mean indel Frequency ± S.E.M ([8]; HPRT, Fibroblasts, 50 nM): 70 ± 5%
- Mean indel Frequency ± S.E.M ([8]; HPRT, Hepatocytes, 10 nM): 54 ± 6%
- Mean indel Frequency ± S.E.M ([8]; HPRT, Hepatocytes, 20 nM): 56 ± 5%
- Mean indel Frequency ± S.E.M ([8]; HPRT, Hepatocytes, 50 nM): 57 ± 5%
- mean indel frequencies ([8]; primary fibroblasts, 20 nM): more than 60%
- mean indel frequencies ([8]; primary hepatocytes, 20 nM): > 55%
- toxicity [9]: no toxicity
